Measured values reported in patent US9797913B2, “Alzheimer's disease-specific alterations of the ERK1/ERK2 phosphorylation ratio-alzheimer's disease-specific molecular biomarkers (ADSMB)” (BLANCHETTE ROCKEFELLER NEUROSCIENCES INSTITUTE, priority 2005, dated 2017).
Entries after “also recorded” stand apart in the source; their conditions may differ.

Experiments:
PKC = conditions: human fibroblasts; cited from earlier work
AD-transgenic mice = conditions: chronic exposure; cited from earlier work
[1] = system: Erk1/Erk2 phosphorylation ratio in Aβ(1-42)-treated human fibroblasts; assay: Bryostatin reversal of the Aβ(1-42)-induced Alzheimer's phenotype (ADSMB) in control fibroblasts; assay type: cell-based; conditions: AC cell lines, 1.0 μM Aβ(1-42) 24 hrs followed by 0.1 nM bryostatin 20 min
Experimental: Preparation of Aβ(1-42) solution: Initially 1 mg of Aβ(1-42) was dissolved in hexa-fluoroisopropanol (Sigma, St. Louis, Mo.) at a concentration of 3 mM and separated into aliquots in sterile microcentrifuge tubes. Hexa-fluoroisopropanol was removed under vacuum and lyophilized. The Aβ(1-42) films were stored at −20° C. under dry conditions until use. 5 mM Aβ(1-42) stock solution was prepared from the stored Aβ(1-42) in DMSO just before the experiment. 1.0 μM stock solution was prepared in DMEM medium (supplemented with 10% serum and penicillin/streptomycin) by dissolving Aβ(1-42) from a DSMO stock solution. […] Total Erk1, Erk2 and the phosphorylated forms of Erk1 and Erk2 (p-Erk1, p-Erk2) were determined using specific antibodies: anti-regular Erk1/2 and anti-phospho ERK1/2. […]
Signals of the Western blot protein bands were scanned with a Fuji LAS-1000 Plus scanner. The intensity of Erk1, Erk2, p-Erk1 and p-Erk2 were measured from scanned protein bands by a specially designed software developed by Dr. Nelson in our Institute (Blanchette Rockefeller Neurosciences Institute, Rockville, Md.). The intensity was measured by strip densitometry. The protein bands were selected by strip and each pixel density was calculated after background subtraction by the software. The ratios of p-Erk1/p-Erk2 were calculated from sample (BK+) and control (BK−) respectively. […]

[2] = system: Aβ(1-42) levels in the brains; conditions: transgenic mice with human AD genes; cited from earlier work
[3] = system: Erk1/Erk2 phosphorylation ratio in non-AD control (AC) cells; assay: Aβ(1-42) induction of the Alzheimer's phenotype (ADSMB, bradykinin-induced p-Erk1/p-Erk2 ratio) in control fibroblasts; assay type: cell-based, human; conditions: for ADSMB: then 10 nM bradykinin 10 min
Experimental: Preparation of Aβ(1-42) solution: Initially 1 mg of Aβ(1-42) was dissolved in hexa-fluoroisopropanol (Sigma, St. Louis, Mo.) at a concentration of 3 mM and separated into aliquots in sterile microcentrifuge tubes. Hexa-fluoroisopropanol was removed under vacuum and lyophilized. The Aβ(1-42) films were stored at −20° C. under dry conditions until use. 5 mM Aβ(1-42) stock solution was prepared from the stored Aβ(1-42) in DMSO just before the experiment. 1.0 μM stock solution was prepared in DMEM medium (supplemented with 10% serum and penicillin/streptomycin) by dissolving Aβ(1-42) from a DSMO stock solution. DMEM medium containing 1.0 μM Aβ(1-42) was added to non-AD control (AC) cells at 90-100% confluence stage in 25 mL cultured flask and kept at cell culture incubator (at 37° C. with 5% CO2) for 24 hrs. Cells were ‘starved’ in serum free medium (DMEM) for 16 hours. 10 nM bradykinin (in DMSO) solution was prepared in DMEM medium with 10% serum. 7 mL of 10 nM BK solution were added to the 25 mL cultured flask and incubated at 37° C. for 10 min. For the controls, the same amount of DMSO was added in DMEM medium with 10% serum. 7 mL of this medium with DMSO (<0.01%) were added to the 25 mL cultured flask and incubated at 37° C. for 10 min. After washing four times with cold (4° C.) 1×PBS, flasks were kept in a dry ice/ethanol mixture for 15 min. Flasks were removed from the dry ice/ethanol mixture and then 100 μL of lysis buffer (10 mM Tris, pH 7.4, 150 mM NaCl, 1 mM EDTA, 1 mM EGTA, 0.5% NP-40, 1% Triton X-100, 1% protease inhibitor cocktail, 1% ser/thr/tyrosine phosphatase inhibitor cocktails) was added into each flask. Flasks were kept on an end-to end shaker in a cold room (4° C.) for 30 min and cells were collected from each flask with a cell scraper. Cells were sonicated and then centrifuged at 14000 rpm for 15 min, and the supernatant was used for Western blotting after total protein assay. Total Erk1, Erk2 and the phosphorylated forms of Erk1 and Erk2 (p-Erk1, p-Erk2) were determined using specific antibodies: anti-regular Erk1/2 and anti-phospho ERK1/2. At least three bradykinin treated flasks (BK+) and correspondingly three control flasks (BK−) were included for each cell line to minimize errors in measurement.
Signals of the Western blot protein bands were scanned with a Fuji LAS-1000 Plus scanner. The intensity of Erk1, Erk2, p-Erk1 and p-Erk2 were measured from scanned protein bands by a specially designed software developed by Dr. Nelson in our Institute (Blanchette Rockefeller Neurosciences Institute, Rockville, Md.). The intensity was measured by strip densitometry. The protein bands were selected by strip and each pixel density was calculated after background subtraction by the software. The ratios of p-Erk1/p-Erk2 were calculated from sample (BK+) and control (BK−) respectively. The following formula was used to distinguish between AD and non-AD cases: ADSMB=[p-Erk1/p-Erk2]^BK+−[p-Erk1/p-Erk2]^BK− ADSMB=Alzheimer's Disease-Specific Molecular Biomarker

| Compound | PKC activation (PKC) | survival (AD-transgenic mice) | ADSMB after Aβ(1-42) then bryostatin treatment (in words) [1] | ADSMB after Aβ(1-42) then bryostatin treatment (in words) ([1]; listed as bryostatin) | Aβ(1-42) levels in the brains [2] | ADSMB Average ± SE ([3]; average of AC cell lines, 1.0 μM Aβ(1-42) 24 hrs, P < 0.001 vs control) | ADSMB ([3]; cell line AG06959, 1.0 μM Aβ(1-42) 24 hrs) | ADSMB ([3]; cell line AG07732, 1.0 μM Aβ(1-42) 24 hrs) | ADSMB ([3]; cell line AG09977, 1.0 μM Aβ(1-42) 24 hrs) | ADSMB ([3]; cell line AG11363, 1.0 μM Aβ(1-42) 24 hrs) | ADSMB after Aβ(1-42) treatment (in words) ([3]; control (non-AD) cell lines, 1.0 μM Aβ(1-42), 24 hours) |
| --- | --- | --- | --- | --- | --- | --- | --- | --- | --- | --- | --- |
| CCC/C=C/C=C/C(=O)O[C@H]1/C(=C/C(=O)OC)C[C@H]2C[C@H]([C@@H](C)O)OC(=O)C[C@H](O)C[C@@H]3C[C@H](OC(C)=O)C(C)(C)[C@](O)(C[C@@H]4C/C(=C/C(=O)OC)C[C@H](/C=C/C(C)(C)[C@]1(O)O2)O4)O3 [Bryostatin] | enhance PKC activation | greatly increased survival | entirely reversed | small and negative | reduce Aβ(1-42) levels | – | – | – | – | – | – |
| Beta amyloid (1-42) [Aβ] | – | – | – | – | – | 0.13 ± 0.01 | 0.13 | 0.12 | 0.13 | 0.16 | abnormal positively valued ADSMB phenotype; also recorded: higher and positive |
